Measurements from ChEMBL document CHEMBL1955803, “Preclinical in vivo evaluation of efficacy, pharmacokinetics, and pharmacodynamics of a novel MEK1/2 kinase inhibitor RO5068760 in multiple tumor models” (Mol Cancer Ther, 2010).
Activity calls are given as the source filed them. The calls are words filed in the database; no cut-off is given here.

What was measured:
Mus musculus [1] = assay: Inhibition of MEK-mediated ERK phosphorylation in po dosed human LOX cells expressing B-Raf V600E mutant xenografted nude mouse tumor by Western blot analysis; format: functional, organism-based
[2] = Antitumor activity against human LOX cells expressing B-Raf V600E mutant xenografted in nude mouse assessed as tumor growth inhibition at 100 mg/kg, po bid; format: functional; details: read-out: GI
Mus musculus [3] = assay: Inhibition of MEK-mediated ERK phosphorylation in tumor of human LOX cells expressing B-Raf V600E mutant xenografted nude mouse at 100 mg/kg, po after 8 hrs by Western blot analysis relative to control; format: functional
[4] = Cmax in human HT-29 cells expressing B-Raf V600E mutant xenografted nude mouse at 50 mg/kg, po bid; format: ADME, organism-based; parameters: dose 50 mg/kg, route oral; details: in vivo
[5] = target: Dual specificity mitogen-activated protein kinase kinase 1 (Homo sapiens, UniProt Q02750); assay: Inhibition of MEK1 in human H460 cells assessed as inhibition of ERK phosphorylation by Western blot analysis; format: cell-based
NCI-H460 [6] = assay: Antitumor activity against human H460 cells expressing K-Ras Q61H mutant xenografted in nude mouse assessed as tumor growth inhibition at 100 mg/kg, po bid; format: functional; details: read-out: GI
Mus musculus [7] = assay: Average drug concentration in human HT-29 cells expressing B-Raf V600E mutant xenografted nude mouse plasma at 25 mg/kg, po bid; format: ADME, organism-based; parameters: dose 25 mg/kg, route oral; details: in vivo
[8] = AUC (0 to 12 hrs) in human LOX cells expressing B-Raf V600E mutant xenografted nude mouse at 12.5 mg/kg, po bid; format: ADME, organism-based; parameters: time < 12 hr, dose 12.5 mg/kg, route oral; details: in vivo
[9] = Plasma concentration in human LOX cells expressing B-Raf V600E mutant xenografted nude mouse at 100 mg/kg, po after 12 hrs; format: ADME, organism-based; parameters: dose 100 mg/kg, route oral
Mus musculus [10] = assay: Toxicity in human HT-29 cells expressing B-Raf V600E mutant xenografted nude mouse assessed as gross signs of adverse effect at 500 mg/kg, po administered weekly once for 3 weeks; format: organism-based; parameters: dose 500 mg/kg, route oral; details: in vivo, 504 h
MIA PaCa-2 [11] = assay: Antitumor activity against human MIAPaCa2 cells expressing K-Ras G12C mutant xenografted in nude mouse assessed as tumor growth inhibition at 50 mg/kg, po bid; format: functional; details: read-out: GI
Mus musculus [12] = assay: Inhibition of MEK-mediated ERK phosphorylation in tumor of human LOX cells expressing B-Raf V600E mutant xenografted nude mouse at 100 mg/kg, po after 2 hrs by Western blot analysis relative to control; format: functional
NCI-H460 [13] = assay: Antitumor activity against human H460 cells expressing K-Ras Q61H mutant xenografted in nude mouse assessed as tumor growth inhibition at 200 mg/kg, po bid; format: functional; details: read-out: GI
[14] = AUC (0 to 12 hrs) in human LOX cells expressing B-Raf V600E mutant xenografted nude mouse at 25 mg/kg, po bid; format: ADME, organism-based; parameters: time < 12 hr, dose 25 mg/kg, route oral; details: in vivo
Mus musculus [15] = assay: Inhibition of MEK-mediated ERK phosphorylation in po dosed human HT-29 cells expressing B-Raf V600E mutant xenografted nude mouse plasma by Western blot analysis; format: functional, organism-based; details: HT-29, Plasma
[16] = AUC (0 to 12 hrs) in human MIAPaCa2 cells expressing K-Ras G12C mutant xenografted nude mouse at 25 mg/kg, po bid; format: ADME, organism-based, MIA PaCa-2; parameters: time < 12 hr, dose 25 mg/kg, route oral; details: in vivo
MIA PaCa-2 [17] = assay: Antitumor activity against human MIAPaCa2 cells expressing K-Ras G12C mutant xenografted in nude mouse assessed as tumor growth inhibition at 200 mg/kg, po bid; format: functional; details: read-out: GI
MIA PaCa-2 [18] = assay: Growth inhibition of human MIAPaCa2 cells expressing K-Ras […] mutant by MTT assay; format: functional, cell-based
Mus musculus [19] = assay: Toxicity in human LOX cells expressing B-Raf V600E mutant xenografted nude mouse assessed as gross signs of adverse effect at 6.25 to 200 mg/kg, po bid for 3 weeks; format: organism-based; parameters: dose 6.25-200 mg/kg, route oral; details: in vivo, 504 h
[20] = Cmax in human HT-29 cells expressing B-Raf V600E mutant xenografted nude mouse at 100 mg/kg, po bid; format: ADME, organism-based; parameters: dose 100 mg/kg, route oral; details: in vivo
MIA PaCa-2 [21] = assay: Antitumor activity against human MIAPaCa2 cells expressing K-Ras G12C mutant xenografted in nude mouse assessed as tumor growth inhibition at 100 mg/kg, po bid; format: functional; details: read-out: GI
Mus musculus [22] = assay: Inhibition of MEK-mediated ERK phosphorylation in po dosed human LOX cells expressing B-Raf V600E mutant xenografted nude mouse plasma by Western blot analysis; format: functional, organism-based
Mus musculus [23] = assay: Inhibition of MEK-mediated ERK phosphorylation in tumor of human LOX cells expressing B-Raf V600E mutant xenografted nude mouse at 100 mg/kg, po after 4 hrs by Western blot analysis relative to control; format: functional
Mus musculus [24] = assay: Toxicity in human H460 cells expressing K-Ras Q61H mutant xenografted nude mouse assessed as gross signs of adverse effect at 25 to 200 mg/kg, po bid for 3 weeks; format: organism-based; parameters: dose 25-200 mg/kg, route oral; details: in vivo, 504 h
[25] = Drug level in human HT-29 cells expressing B-Raf V600E mutant xenografted nude mouse tumor at 100 mg/kg, po after 2 hrs; format: ADME, organism-based, Neoplasm; parameters: dose 100 mg/kg, route oral; details: read-out: Drug uptake
Mus musculus [26] = assay: Average drug concentration in human MIAPaCa2 cells expressing K-Ras G12C mutant xenografted nude mouse plasma at 200 mg/kg, po qd; format: ADME, organism-based, MIA PaCa-2; parameters: dose 200 mg/kg, route oral; details: in vivo
[27] = Drug level in human LOX cells expressing B-Raf V600E mutant xenografted nude mouse tumor at 100 mg/kg, po after 12 hrs; format: ADME, organism-based, Neoplasm; parameters: dose 100 mg/kg, route oral; details: read-out: Drug uptake
[28] = Drug level in human HT-29 cells expressing B-Raf V600E mutant xenografted nude mouse tumor at 100 mg/kg, po after 8 hrs; format: ADME, organism-based, Neoplasm; parameters: dose 100 mg/kg, route oral; details: read-out: Drug uptake
[29] = Antitumor activity against human LOX cells expressing B-Raf V600E mutant xenografted in nude mouse assessed as tumor growth inhibition at 200 mg/kg, po bid; format: functional; details: read-out: GI
Mus musculus [30] = assay: Average drug concentration in human MIAPaCa2 cells expressing K-Ras G12C mutant xenografted nude mouse plasma at 25 mg/kg, po bid; format: ADME, organism-based, MIA PaCa-2; parameters: dose 25 mg/kg, route oral; details: in vivo
[31] = Cmax in human HT-29 cells expressing B-Raf V600E mutant xenografted nude mouse at 25 mg/kg, po bid; format: ADME, organism-based; parameters: dose 25 mg/kg, route oral; details: in vivo
[32] = Plasma concentration in human HT-29 cells expressing B-Raf V600E mutant xenografted nude mouse at 100 mg/kg, po after 2 hrs; format: ADME, organism-based; parameters: dose 100 mg/kg, route oral
[33] = AUC (0 to 24 hrs) in human H460 cells expressing K-Ras Q61H mutant xenografted nude mouse at 200 mg/kg, po qd; format: ADME, organism-based; parameters: time < 24 hr, dose 200 mg/kg, route oral; details: in vivo
HT-29 [34] = assay: Antitumor activity against human HT-29 cells expressing B-Raf V600E mutant xenografted in nude mouse assessed as tumor growth inhibition at 25 mg/kg, po bid; format: functional; details: read-out: GI
[35] = Cmax in human MIAPaCa2 cells expressing K-Ras G12C mutant xenografted nude mouse at 100 mg/kg, po bid; format: ADME, organism-based, MIA PaCa-2; parameters: dose 100 mg/kg, route oral; details: in vivo
[36] = Plasma concentration in human HT-29 cells expressing B-Raf V600E mutant xenografted nude mouse at 100 mg/kg, po after 12 hrs; format: ADME, organism-based; parameters: dose 100 mg/kg, route oral
Cynomolgus monkey = assay: Inhibition of MEK in po dosed cynomolgus monkey peripheral blood mononuclear cells assessed as inhibition of PMA-stimulated ERK phosphorylation after 1 to 24 hrs by flow cytometry; format: functional, organism-based; details: Macaca fascicularis
[37] = Plasma concentration in human LOX cells expressing B-Raf V600E mutant xenografted nude mouse at 100 mg/kg, po after 8 hrs; format: ADME, organism-based; parameters: dose 100 mg/kg, route oral
HT-29 [38] = assay: Cell cycle arrest in human HT-29 cells assessed as accumulation at G1 phase; format: functional, cell-based

Sequence of Dual specificity mitogen-activated protein kinase kinase 1 (Q02750 whole entry): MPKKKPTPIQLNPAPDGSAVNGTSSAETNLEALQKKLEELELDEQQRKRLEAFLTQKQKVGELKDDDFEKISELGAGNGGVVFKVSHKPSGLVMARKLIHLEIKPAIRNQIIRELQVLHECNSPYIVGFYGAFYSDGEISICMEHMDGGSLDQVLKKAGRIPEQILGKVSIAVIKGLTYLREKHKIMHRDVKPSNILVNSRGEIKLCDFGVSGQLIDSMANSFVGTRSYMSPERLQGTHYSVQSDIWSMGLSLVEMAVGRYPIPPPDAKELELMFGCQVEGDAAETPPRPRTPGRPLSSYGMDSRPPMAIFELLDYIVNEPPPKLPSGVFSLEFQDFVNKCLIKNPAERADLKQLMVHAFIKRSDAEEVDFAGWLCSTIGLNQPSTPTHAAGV

C[C@@H](c1ccccc1)[C@@H](C(=O)Nc1ccc(I)cc1F)N1C(=O)N[C@H](c2ccc(OC[C@H](O)CO)cc2)C1=O
EC50 (Mus musculus [1]): 928 ng/g | inhibition in vivo at 100 mg/kg [2]: > 100% | inhibition in vivo at 100 mg/kg (Mus musculus [3]): 48% | Cmax [4]: 1300 ng/mL | IC50 [5]: 82 nM | inhibition in vivo at 100 mg/kg (NCI-H460 [6]): 90% | Cave (Mus musculus [7]): 315 ng/mL | AUC at 12 h [8]: 4660 ng·h/mL | concentration at 12 h [9]: 72 ng/mL | Activity (Mus musculus [10]): Non-toxic | inhibition in vivo at 50 mg/kg (MIA PaCa-2 [11]): 84% | inhibition in vivo at 100 mg/kg (Mus musculus [12]): 86% | inhibition in vivo at 200 mg/kg (NCI-H460 [13]): 80% | AUC at 12 h [14]: 10000 ng·h/mL | EC50 (Mus musculus [15]): 3350 nM | AUC at 12 h [16]: 12700 ng·h/mL | inhibition in vivo at 200 mg/kg (MIA PaCa-2 [17]): 97% | IC50 (MIA PaCa-2 [18]): 1250 nM | IC90 (MIA PaCa-2 [18]): 5110 nM | Activity (Mus musculus [19]): Non-toxic | Cmax [20]: 4070 ng/mL | inhibition in vivo at 100 mg/kg (MIA PaCa-2 [21]): > 100% | EC50 (Mus musculus [22]): 1360 nM | inhibition in vivo at 100 mg/kg (Mus musculus [23]): 83% | Activity (Mus musculus [24]): Non-toxic | concentration at 2 h [25]: 2090 ng/g | Cave (Mus musculus [26]): 2758 ng/mL | concentration at 12 h [27]: 318 ng/g | concentration at 8 h [28]: 293 ng/g | inhibition in vivo at 200 mg/kg [29]: > 100% | Cave (Mus musculus [30]): 1058 ng/mL | Cmax [31]: 911 ng/mL | concentration at 2 h [32]: 9360 ng/mL | AUC at 24 h [33]: 122000 ng·h/mL | inhibition in vivo at 25 mg/kg (HT-29 [34]): 65% | Cmax [35]: 9650 ng/mL | concentration at 12 h [36]: 195 ng/mL | EC50 (Cynomolgus monkey): 1410 nM | concentration at 8 h [37]: 1410 ng/mL | Activity (HT-29 [38]): Active
